ChEMBL document CHEMBL3400059, “Synthesis and structure-activity relationships of a series of 4-methoxy-3-(piperidin-4-yl)oxy benzamides as novel inhibitors of the presynaptic choline transporter” (Bioorg Med Chem Lett, 2015)
Active and inactive are the calls of the source. The rule behind the calls is not given here.

Key:
[1] = system: T1, High affinity choline transporter 1 (Homo sapiens), Q9GZV3 [L531A,V532A]; assay: Inhibition of human CHT […] mutant expressed in HEK293 cells assessed as remaining transporter activity at 5 uM in presence of 10 uM [3H]choline by [3H]choline uptake assay; format: cell-based
T1 sequence (whole entry): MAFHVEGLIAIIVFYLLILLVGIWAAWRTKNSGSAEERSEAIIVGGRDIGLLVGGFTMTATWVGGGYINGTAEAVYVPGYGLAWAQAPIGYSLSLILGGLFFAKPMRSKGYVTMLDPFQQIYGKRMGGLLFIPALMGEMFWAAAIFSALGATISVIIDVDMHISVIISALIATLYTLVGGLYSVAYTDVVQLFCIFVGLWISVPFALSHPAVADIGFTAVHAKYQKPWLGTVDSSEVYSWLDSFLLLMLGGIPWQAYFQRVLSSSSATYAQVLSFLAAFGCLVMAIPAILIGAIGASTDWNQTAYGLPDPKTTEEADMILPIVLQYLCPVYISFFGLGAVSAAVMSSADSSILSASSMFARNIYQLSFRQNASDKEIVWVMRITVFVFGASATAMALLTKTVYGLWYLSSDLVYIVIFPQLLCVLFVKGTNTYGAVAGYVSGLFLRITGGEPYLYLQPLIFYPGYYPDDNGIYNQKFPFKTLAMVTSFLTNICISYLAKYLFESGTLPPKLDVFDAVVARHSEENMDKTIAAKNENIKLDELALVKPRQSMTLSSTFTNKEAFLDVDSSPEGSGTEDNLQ

[2] = biological target: T2, High affinity choline transporter 1 (Homo sapiens, UniProt Q9GZV3, L531A/V532A); assay: Inhibition of human CHT […] mutant expressed in HEK293 cells assessed as remaining transporter activity in presence of 100 nM [3H]choline by [3H]choline uptake assay; format: cell-based
[3] = biological target: T2, High affinity choline transporter 1; assay: Inhibition of human CHT […] mutant expressed in HEK293 cells assessed as remaining transporter activity in presence of 10 uM [3H]choline by [3H]choline uptake assay; format: cell-based
[4] = system: T1, High affinity choline transporter 1 (Homo sapiens), Q9GZV3 [L531A,V532A]; assay: Inhibition of human CHT […] mutant expressed in HEK293 cells assessed as remaining transporter activity at 5 uM in presence of 100 nM [3H]choline by [3H]choline uptake assay; format: cell-based
[5] = biological target: T2, High affinity choline transporter 1; assay: Inhibition of human CHT […] mutant expressed in HEK293 cells by membrane depolarization assay; format: cell-based
[6] = system: Brain; assay: Drug level in mouse brain at 1 mg/kg, ip administered as cassette dosing; format: ADME, organism-based; design: dose 1 mg/kg, route intraperitoneal; settings: in vivo
[7] = system: Plasma; assay: Fraction unbound in mouse plasma by equilibrium dialysis method; format: ADME, cell-free
[8] = biological target: Cytochrome P450 2C9 (Homo sapiens, UniProt P11712); assay: Inhibition of human CYP2C9; format: ADME
Chain of Cytochrome P450 2C9 (P11712 whole entry): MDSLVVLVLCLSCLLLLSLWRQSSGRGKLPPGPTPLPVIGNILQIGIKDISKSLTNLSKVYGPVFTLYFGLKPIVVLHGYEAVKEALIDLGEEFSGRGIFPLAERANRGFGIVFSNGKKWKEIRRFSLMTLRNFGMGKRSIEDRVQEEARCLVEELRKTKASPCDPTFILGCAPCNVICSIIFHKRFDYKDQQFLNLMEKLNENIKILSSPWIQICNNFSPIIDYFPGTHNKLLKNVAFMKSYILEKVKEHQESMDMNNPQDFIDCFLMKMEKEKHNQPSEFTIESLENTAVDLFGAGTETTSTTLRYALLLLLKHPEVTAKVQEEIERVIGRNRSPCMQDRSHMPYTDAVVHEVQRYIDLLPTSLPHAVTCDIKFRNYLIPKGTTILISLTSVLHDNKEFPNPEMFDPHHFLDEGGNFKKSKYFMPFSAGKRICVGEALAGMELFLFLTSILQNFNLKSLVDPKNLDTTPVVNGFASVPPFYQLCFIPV

[9] = Ratio of drug level in brain to plasma in mouse at 1 mg/kg, ip administered as cassette dosing; format: ADME, organism-based; design: dose 1 mg/kg, route intraperitoneal
[10] = Hepatic clearance in mouse liver microsomes; format: ADME
[11] = biological target: T3, Cytochrome P450 1A2 (Homo sapiens, UniProt P05177); assay: Inhibition of human CYP1A2; format: ADME
T3 sequence (P05177 whole entry): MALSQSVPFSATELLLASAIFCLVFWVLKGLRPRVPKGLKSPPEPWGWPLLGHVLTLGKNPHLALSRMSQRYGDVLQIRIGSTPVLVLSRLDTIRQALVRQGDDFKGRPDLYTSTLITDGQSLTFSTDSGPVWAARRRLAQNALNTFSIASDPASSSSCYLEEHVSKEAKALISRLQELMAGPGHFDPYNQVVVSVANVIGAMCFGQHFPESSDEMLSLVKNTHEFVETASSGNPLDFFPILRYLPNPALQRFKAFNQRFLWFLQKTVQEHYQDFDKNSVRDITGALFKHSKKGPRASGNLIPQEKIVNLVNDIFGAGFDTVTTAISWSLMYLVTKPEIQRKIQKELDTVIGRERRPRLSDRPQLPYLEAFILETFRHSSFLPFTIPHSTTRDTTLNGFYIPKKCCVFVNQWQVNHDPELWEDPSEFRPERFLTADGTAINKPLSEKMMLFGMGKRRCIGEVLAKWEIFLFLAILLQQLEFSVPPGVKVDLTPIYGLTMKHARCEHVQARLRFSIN

[12] = biological target: Cytochrome P450 2D6 (Homo sapiens, UniProt P10635); assay: Inhibition of human CYP2D6; format: ADME
Chain of Cytochrome P450 2D6 (P10635 whole entry): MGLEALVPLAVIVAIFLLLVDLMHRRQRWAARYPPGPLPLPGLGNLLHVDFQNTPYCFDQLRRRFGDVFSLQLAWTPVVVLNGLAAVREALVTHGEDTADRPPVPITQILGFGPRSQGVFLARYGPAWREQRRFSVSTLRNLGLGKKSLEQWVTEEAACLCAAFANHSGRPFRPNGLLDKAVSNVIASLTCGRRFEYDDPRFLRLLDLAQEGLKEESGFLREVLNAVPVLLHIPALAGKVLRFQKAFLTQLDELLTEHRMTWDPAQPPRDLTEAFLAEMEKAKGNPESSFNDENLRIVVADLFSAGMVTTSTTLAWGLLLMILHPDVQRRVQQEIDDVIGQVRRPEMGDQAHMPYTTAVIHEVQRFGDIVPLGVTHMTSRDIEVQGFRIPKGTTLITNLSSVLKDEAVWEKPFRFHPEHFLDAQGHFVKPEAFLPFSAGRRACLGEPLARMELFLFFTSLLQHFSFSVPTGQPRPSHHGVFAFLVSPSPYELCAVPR

[13] = biological target: Cytochrome P450 3A4 (Homo sapiens, UniProt P08684); assay: Inhibition of human CYP3A4; format: ADME
Chain of Cytochrome P450 3A4 (P08684 whole entry): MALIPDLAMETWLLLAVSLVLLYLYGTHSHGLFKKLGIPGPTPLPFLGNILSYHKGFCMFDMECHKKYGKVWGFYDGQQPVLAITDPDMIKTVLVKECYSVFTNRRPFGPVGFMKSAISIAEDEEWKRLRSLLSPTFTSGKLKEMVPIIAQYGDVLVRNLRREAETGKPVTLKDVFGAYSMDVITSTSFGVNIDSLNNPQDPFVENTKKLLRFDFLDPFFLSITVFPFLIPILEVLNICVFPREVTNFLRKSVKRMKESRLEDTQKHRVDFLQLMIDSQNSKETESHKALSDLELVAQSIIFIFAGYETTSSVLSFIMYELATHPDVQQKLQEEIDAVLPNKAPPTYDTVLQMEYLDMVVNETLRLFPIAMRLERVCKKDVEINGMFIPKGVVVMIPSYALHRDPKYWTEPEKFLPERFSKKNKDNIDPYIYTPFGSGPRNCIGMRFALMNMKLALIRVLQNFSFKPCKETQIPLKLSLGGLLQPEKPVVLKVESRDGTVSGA

[14] = biological target: Sodium-dependent dopamine transporter (Homo sapiens) (UniProt Q01959); assay: Inhibition of DAT (unknown origin)
Chain of Sodium-dependent dopamine transporter (Homo sapiens) (Q01959 whole entry): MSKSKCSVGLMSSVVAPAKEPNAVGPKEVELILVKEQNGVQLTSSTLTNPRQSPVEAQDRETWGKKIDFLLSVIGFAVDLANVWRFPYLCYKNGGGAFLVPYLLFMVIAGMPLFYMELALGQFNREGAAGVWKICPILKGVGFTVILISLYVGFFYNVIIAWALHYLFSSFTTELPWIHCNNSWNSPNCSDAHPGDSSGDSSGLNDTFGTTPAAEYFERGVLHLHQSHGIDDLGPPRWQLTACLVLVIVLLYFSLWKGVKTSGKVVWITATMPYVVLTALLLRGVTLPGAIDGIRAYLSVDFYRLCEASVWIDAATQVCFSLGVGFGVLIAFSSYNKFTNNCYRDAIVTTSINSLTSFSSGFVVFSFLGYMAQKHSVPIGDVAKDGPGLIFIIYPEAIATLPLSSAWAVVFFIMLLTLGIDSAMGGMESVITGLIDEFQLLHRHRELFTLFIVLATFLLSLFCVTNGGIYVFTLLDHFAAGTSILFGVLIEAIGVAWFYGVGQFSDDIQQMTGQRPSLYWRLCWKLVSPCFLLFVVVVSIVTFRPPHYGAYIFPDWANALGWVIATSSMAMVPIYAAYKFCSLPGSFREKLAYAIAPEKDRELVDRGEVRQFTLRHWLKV

Row | SMILES | Activity [1] | IC50 [2] | IC50 [3] | Activity [4] | also measured
1 | COc1ccc(C(=O)NCc2cc(C)n(C)n2)cc1OC1CCN(C(C)C)CC1 | 29.4% | 8.09 µM | 2.51 µM | 49.9% | 
2 | COc1ccc(C(=O)NC(C)Cc2cnccn2)cc1OC1CCN(C(C)C)CC1 (centres undefined) |  |  |  |  | IC50 [5]: 4.47 µM
3 | COc1ccc(C(=O)NCc2cc(C(C)C)no2)cc1OC1CCN(C(C)C)CC1 | -2.8% |  |  | 10.9% | Drug uptake ([6]; BLD = below limit of detection): BLD; Fu [7]: 0.57; IC50 [8]: > 30 µM; BPR [9]: < 0.06; CLhep predicted [10]: 80.7 mL/min/kg; IC50 [11]: > 30 µM; IC50 [12]: > 30 µM; IC50 [13]: > 30 µM
4 | COc1ccc(C(=O)NCc2nc(C)cs2)cc1OC1CCN(C(C)C)CC1 | 13.2% | 3.48 µM | 1.02 µM | 42.2% | 
5 | CCn1nc(C)c(CNC(=O)c2ccc(OC)c(OC3CCN(C(C)C)CC3)c2)c1C | 15.9% | 1.58 µM | 0.91 µM | 45.8% | Drug uptake ([6]; BLD = below limit of detection): BLD; Fu [7]: 0.57; IC50 [8]: > 30 µM; BPR [9]: < 0.05; CLhep predicted [10]: 22.4 mL/min/kg; IC50 [11]: > 30 µM; IC50 [12]: 6.7 µM; IC50 [13]: > 30 µM
6 | COc1ccc(C(=O)NCc2nc(C)c(C)s2)cc1OC1CCN(C(C)C)CC1 |  |  |  |  | IC50 [5]: 0.76 µM
7 | COc1ccc(C(=O)NCc2cc(C(C)C)no2)cc1OCC(C)C | 89.4% |  |  | 99.8% | 
8 | COc1ccc(C(=O)NCc2cc(C(C)C)no2)cc1OCCN1CCOCC1 | 32.1% | 6.12 µM | 1.77 µM | 36.7% | 
9 | COc1ccc(C(=O)NCc2cc(C(C)C)no2)cc1OC1CCCCC1 | 87.6% |  |  | 83.2% | 
10 | COc1ccc(C(=O)NCc2cc(C(C)C)no2)cc1OC(C)CN(C)C (centres undefined) | 28.2% |  |  | 59.7% | 
11 | COc1ccc(C(=O)NCc2cc(C(C)C)no2)cc1OC1CCCN(C)C1 (centres undefined) | 18.4% | 1.25 µM | 4.54 µM | 51.7% | 
12 | COc1ccc(C(=O)NCc2cnn(C)c2)cc1OC1CCN(C(C)C)CC1 | 47.5% |  |  | 64.8% | 
13 | CC(NC(=O)c1ccc(OC2CCN(Cc3ccccn3)CC2)cc1)c1ccccc1 (centres undefined) |  |  |  |  | IC50 [5]: 1.26 µM
14 | COc1ccc(C(=O)NCc2cc(C(C)C)no2)cc1OC1CCN(C)CC1 | -0.9% |  |  | 3.1% | Drug uptake [6]: 3.3 ng/g; Fu [7]: 0.48; inhibition [14]: inactive; IC50 [8]: > 30 µM; BPR [9]: 0.28; CLhep predicted [10]: 29.4 mL/min/kg; IC50 [11]: > 30 µM; IC50 [12]: > 30 µM
15 | COc1ccc(C(=O)NCCN2CCCC2)cc1OC1CCN(C(C)C)CC1 | 9.9% | 2.13 µM | 1.56 µM | 37.4% | 
16 | COc1ccc(C(=O)NCc2ccc(C)s2)cc1OC1CCN(C(C)C)CC1 | 36.7% |  |  | 76.4% | 
17 | COc1ccc(C(=O)NCCC2=CCCCC2)cc1OC1CCN(C(C)C)CC1 |  |  |  |  | IC50 [5]: 3.16 µM
18 | COc1ccc(C(=O)NCc2cc(C(C)C)no2)cc1OCCN1CCCC1 | 29.8% |  |  | 50.1% | 
19 | COc1ccc(C(=O)NC2CCc3ccccc32)cc1OC1CCN(C(C)C)CC1 (centres undefined) |  |  |  |  | IC50 [5]: 3.36 µM
20 | COc1ccc(C(=O)NCc2cc(C(C)C)no2)cc1OC1CCNCC1 | 18.6% |  |  | 51.5% | 
21 | COc1ccc(C(=O)NCc2cc(C(C)C)no2)cc1OCCN1CCCCC1 | -0.2% | 0.76 µM | 0.53 µM | 38.3% | Drug uptake [6]: 1.8 ng/g; Fu [7]: 0.71; IC50 [8]: > 30 µM; BPR [9]: 0.07; CLhep predicted [10]: 58.4 mL/min/kg; IC50 [11]: > 30 µM; IC50 [12]: > 30 µM; IC50 [13]: > 30 µM
22 | COc1ccc(C(=O)NCc2csc(C)n2)cc1OC1CCN(C(C)C)CC1 | 18.9% | 4.93 µM | 1.64 µM | 42.6% | Drug uptake [6]: 1.5 ng/g; Fu [7]: 0.39; IC50 [8]: > 30 µM; BPR [9]: 0.19; CLhep predicted [10]: 82.4 mL/min/kg; IC50 [11]: 10.3 µM; IC50 [12]: > 30 µM; IC50 [13]: > 30 µM
23 | CCn1cc(CNC(=O)c2ccc(OC)c(OC3CCN(C(C)C)CC3)c2)cn1 | 24.8% | 9.27 µM | 1.85 µM | 41.8% | 
24 | COc1ccc(C(=O)NCc2cc(C(C)C)no2)cc1OC1CCCC1 | 81.3% |  |  | 82% | 
25 | CCc1cc(CNC(=O)c2ccc(OC)c(OC3CCN(C(C)C)CC3)c2)on1 |  |  |  |  | IC50 [5]: 0.6 µM
26 | CCCN1CCC(Oc2cccc(C(=O)NCCc3ccccc3)c2)CC1 |  |  |  |  | IC50 [5]: 4.22 µM
27 | COc1ccc(C(=O)NCc2ccncn2)cc1OC1CCN(C(C)C)CC1 | 71.8% |  |  | 87.7% | 
28 | COc1ccc(C(=O)NCc2cc(C(C)C)no2)cc1O | 99.4% |  |  | 86.2% | 
29 | COc1ccc(C(=O)NC(C)Cc2ccccn2)cc1OC1CCN(C(C)C)CC1 (centres undefined) | 20.4% | 4.12 µM | 1.73 µM | 46.3% | Drug uptake [6]: 4 ng/g; Fu [7]: 0.35; IC50 [8]: > 30 µM; BPR [9]: 1.1; CLhep predicted [10]: 48.8 mL/min/kg; IC50 [11]: > 30 µM; IC50 [12]: 27.1 µM; IC50 [13]: 28.2 µM
